# In patent US11021470B2, “2-substituted quinazoline compounds comprising a substituted heterocyclic group and methods of use thereof” (Araxes Pharma LLC, priority 2015, dated 2021):
# Target: T1, KRAS G12C 1-169, his-tagged protein, GDP-loaded (Homo sapiens, UniProt P01116, G12C)
# T1 construct: KRAS G12C 1-169, his-tagged protein, GDP-loaded
# Test: KRAS G12C covalent binding (% modification) by mass spectrometry, ten or three minute incubation
# Description: Test compounds were prepared as 10 mM stock solutions in DMSO (Fisher cat #BP-231-100). KRAS G12C 1-169, his-tagged protein, GDP-loaded was diluted to […] in buffer (20 mM Hepes, 150 mM NaCl, 1 mM MgCl2). Compounds were tested for activity as follows:
# Compounds were diluted to 50× final test concentration in DMSO in 96-well storage plates. Compound stock solutions were vortexed before use and observed carefully for any sign of precipitation. Dilutions were as follow: • For 100 μM final compound concentration, compounds were diluted to 5000 μM (5 μl 10 mM compound stock+5 μl DMSO and mixed well by pipetting. • For 30 μM final compound concentration, compounds were diluted to 1500 μM (3 μl 10 mM compound stock+17 μl DMSO) and mixed well by pipetting. • For 10 μM final compound concentration, compounds were diluted to 500 μM (2 μl 10 mM compound stock+38 μl DMSO) and mixed well by pipetting. 49 μl of the stock protein solution was added to each well of a 96-well PCR plate (Fisher cat #1423027). 1 μl of the diluted 50× compounds were added to appropriate wells in the PCR plate using 12-channel pipettor. Reactions were mixed carefully and thoroughly by pipetting up/down with a 200 μl multi-channel pipettor. […] 5 μl of 2% formic acid (Fisher cat #A117) in DI H2O was then added to each well followed by mixing with a pipette. The plate was then resealed with aluminum seal and stored on dry ice until analyzed as described below.
# The above described assays were analyzed by mass spectrometry according to one of the following two procedures:
# The MS instrument is set to positive polarity, 2 GHz resolution, and low mass (1700) mode and allowed to equilibrate for 30 minutes. The instrument is then calibrated, switched to acquisition mode and the appropriate method loaded.
# After another 30 minute equilibration time, a blank batch (i.e., buffer) is run to ensure equipment is operating properly. The samples are thawed at 37° C. for 10 minutes, briefly centrifuged, and transfer to the bench top. Wells A1 and H12 are spiked with 1 μL 500 μM internal standard peptide, and the plates centrifuged at 2000×g for 5 minutes. The method is then run and masses of each individual well recorded.
# The masses (for which integration data is desired) for each well are pasted into the platemap and exported from the analysis. Masses for the internal standards are exported as well. The data at 50 ppm is extracted for the +19 charge state, and identity of well A1 is assigned using the internal standard spike and integrated. Peak data is exported as a TOF list and the above steps are repeated individually, for the +20, 21, 22, 23, 24, and 25 charge states.
# The masses and peak intensities of KRAS G12C protein species were measured using a Dionex RSLCnano system (Thermo Scientific) connected to a Q Exactive Plus mass spectrometer (Thermo Scientific).
# […] of sample was each loaded onto a Aeris™ 3.6 μm WIDEPORE C4 200 Å, LC Column 50×2.1 mm column maintained at 40° C. at a flow rate of 600 μl min^−1 with […] (0.1% formic acid in acetonitrile). The liquid chromatography conditions were 20% solvent B for 1 min, 20% to 60% solvent B for 1.5 min, 60% to 90% solvent for 0.5 min, 90% solvent B for 0.2 min, 90% to 20% solvent B for 0.2 min, and then equilibrated for 1.6 min before the following sample injection. The flow rate was maintained at 600 μl min^−1 throughout the sample analysis.
# The mass spectrometer was operated in profile mode at a resolution of 17500, 5 microscans, using 50 msec max injection time and an AGC target of 1e6, and a full mass range from 800-1850 m/z was recorded. The HCD trapping gas was optimized for maximum sensitivity for intact proteins. The ionization method was electrospray ionization, which used a spray voltage of 4 kV, sheath gas flow set to 50 au, auxiliary gas flow set to 10 au and sweep gas flow set to 1 au. […]
# [1] = covalent binding to KRAS G12C, % modification after a three minute incubation period
SMILES,Binding % [1],Binding % (covalent binding to KRAS G12C after a ten minute incubation period)
"C=CC(=O)N1C[C@H](C)N(c2nc(OCC(C)(C)N)nc3c(F)c(-c4c(O)cccc4F)c(Cl)cc23)C[C@H]1C [Compound 274, 1-((2R,5S)-4-(2-(2-amino-2-methylpropoxy)-6-chloro-8-fluoro-7-(2-fluoro-6-hydroxyphenyl)quinazolin-4-yl)-2,5-dimethylpiperazin-1-yl)prop-2-en-1-one]",+ (+ indicates binding activity greater than 0% and up to 50%),
"C=CC(=O)N1C[C@H](C)N(c2nc(N3CC(N(C)C)C3)nc3c(F)c(-c4c[nH]c5c(F)cccc45)c(Cl)cc23)C[C@H]1C [Compound 294, 1-((2R,5S)-4-(6-chloro-2-(3-(dimethylamino)azetidin-1-yl)-8-fluoro-7-(7-fluoro-1H-indol-3-yl)quinazolin-4-yl)-2,5-dimethylpiperazin-1-yl)prop-2-en-1-one]",+ (+ indicates binding activity greater than 0% and up to 50%),
"C=CC(=O)N1C[C@H](C)N(c2nc(OCCc3nccn3C)nc3c(F)c(-c4c(O)cccc4F)c(Cl)cc23)C[C@H]1C (atropisomer, axis not shown) [Compound 288, 1-((2R,5S)-4-((S)-6-chloro-8-fluoro-7-(2-fluoro-6-hydroxyphenyl)-2-(2-(1-methyl-1H-imidazol-2-yl)ethoxy)quinazolin-4-yl)-2,5-dimethylpiperazin-1-yl)prop-2-en-1-one]",+++ (+++ indicates binding activity greater than 90%),
"C=CC(=O)N1C[C@H](C)N(c2nc(N3CC(N(C)C)C3)nc3c(F)c(-c4cc(O)cc5ccccc45)c(C(F)(F)F)cc23)C[C@H]1C (atropisomer, axis not shown) [Compound 255, 1-((2R,5S)-4-(2-(3-(dimethylamino)azetidin-1-yl)-8-fluoro-7-((R)-3-hydroxynaphthalen-1-yl)-6-(trifluoromethyl)quinazolin-4-yl)-2,5-dimethylpiperazin-1-yl)prop-2-en-1-one]",+++ (+++ indicates binding activity greater than 90%),
"C=CC(=O)N1C[C@@H](C)N(c2nc(N3CC(N(C)C)C3)nc3c(F)c(-c4c(O)cccc4F)c(Cl)cc23)C[C@@H]1C [Compound 87, 1-((2S,5R)-4-(6-chloro-2-(3-(dimethylamino)azetidin-1-yl)-8-fluoro-7-(2-fluoro-6-hydroxyphenyl)quinazolin-4-yl)-2,5-dimethylpiperazin-1-yl)prop-2-en-1-one]",+ (+ indicates binding activity greater than 0% and up to 50%),
"C=CC(=O)N1C[C@H](C)N(c2nc(OCCc3nccn3C)nc3c(F)c(-c4c(C)ccc5[nH]ncc45)c(Cl)cc23)C[C@H]1C [Compound 293, 1-((2R,5S)-4-(6-chloro-8-fluoro-2-(2-(1-methyl-1H-imidazol-2-yl)ethoxy)-7-(5-methyl-1H-indazol-4-yl)quinazolin-4-yl)-2,5-dimethylpiperazin-1-yl)prop-2-en-1-one]",++ (++ indicates binding activity from 50 to 90%),
"C=CC(=O)N1C[C@H](C)N(c2nc(N3CC(N(C)C)C3)nc3c(F)c(-c4c(C)ccc5[nH]nc(C)c45)c(Cl)cc23)C[C@H]1C [Compound 252, 1-((2R,5S)-4-(6-chloro-7-(3,5-dimethyl-1H-indazol-4-yl)-2-(3-(dimethylamino)azetidin-1-yl)-8-fluoroquinazolin-4-yl)-2,5-dimethylpiperazin-1-yl)prop-2-en-1-one]",+++ (+++ indicates binding activity greater than 90%),
"C=CC(=O)N1C[C@H](C)N(c2nc(OCCc3nccc(C)n3)nc3c(F)c(-c4c(O)cccc4F)c(Cl)cc23)C[C@H]1C (atropisomer, axis not shown) [Compound 257, 1-((2R,5S)-4-(6-chloro-8-fluoro-7-((S)-2-fluoro-6-hydroxyphenyl)-2-(2-(4-methylpyrimidin-2-yl)ethoxy)quinazolin-4-yl)-2,5-dimethylpiperazin-1-yl)prop-2-en-1-one]",+++ (+++ indicates binding activity greater than 90%),
"C=CC(=O)N1C[C@H](C)N(c2nc(OCCc3cncnc3)nc3c(F)c(-c4c(O)cccc4F)c(Cl)cc23)C[C@H]1C (atropisomer, axis not shown) [Compound 262, 1-((2R,5S)-4-(6-chloro-8-fluoro-7-((S)-2-fluoro-6-hydroxyphenyl)-2-(2-(pyrimidin-5-yl)ethoxy)quinazolin-4-yl)-2,5-dimethylpiperazin-1-yl)prop-2-en-1-one]",+++ (+++ indicates binding activity greater than 90%),
"C=CC(=O)N1C[C@H](C)N(c2nc(OCCN3CC(F)(F)C3)nc3c(F)c(-c4c(O)cccc4F)c(Cl)cc23)C[C@H]1C (atropisomer, axis not shown) [Compound 84, 1-((2R,5S)-4-((S)-6-chloro-2-(2-(3,3-difluoroazetidin-1-yl)ethoxy)-8-fluoro-7-(2-fluoro-6-hydroxyphenyl)quinazolin-4-yl)-2,5-dimethylpiperazin-1-yl)prop-2-en-1-one]",,+++ (+++ indicates binding activity greater than 90%)
"C=CC(=O)N1C[C@H](C)N(c2nc(N3CC(N(C)C)C3)nc3c(F)c(-c4n[nH]c5ccccc45)c(Cl)cc23)C[C@H]1C [Compound 295, 1-((2R,5S)-4-(6-chloro-2-(3-(dimethylamino)azetidin-1-yl)-8-fluoro-7-(1H-indazol-3-yl)quinazolin-4-yl)-2,5-dimethylpiperazin-1-yl)prop-2-en-1-one]",+ (+ indicates binding activity greater than 0% and up to 50%),
"C=CC(=O)N1C[C@H](C)N(c2nc(N3CC(N(C)C)C3)nc3c(F)c(-c4c(C)ccc5[nH]nc([N+](=O)[O-])c45)c(Cl)cc23)C[C@H]1C [Compound 297, 1-((2R,5S)-4-(6-chloro-2-(3-(dimethylamino)azetidin-1-yl)-8-fluoro-7-(5-methyl-3-nitro-1H-indazol-4-yl)quinazolin-4-yl)-2,5-dimethylpiperazin-1-yl)prop-2-en-1-one]",+ (+ indicates binding activity greater than 0% and up to 50%),
"C=CC(=O)N1C[C@H](C)N(c2nc(N3CC(N(C)C)C3)nc3c(F)c(-c4c(C)ccc5[nH]cnc45)c(Cl)cc23)C[C@H]1C [Compound 273, 1-((2R,5S)-4-(6-chloro-2-(3-(dimethylamino)azetidin-1-yl)-8-fluoro-7-(5-methyl-1H-benzo[d]imidazol-4-yl)quinazolin-4-yl)-2,5-dimethylpiperazin-1-yl)prop-2-en-1-one]",+++ (+++ indicates binding activity greater than 90%),
"C=CC(=O)N1C[C@H](C)N(c2nc(OCCc3cn(C(C)C)cn3)nc3c(F)c(-c4c(O)cccc4F)c(Cl)cc23)C[C@H]1C [Compound 302, 1-((2R,5S)-4-(6-chloro-8-fluoro-7-(2-fluoro-6-hydroxyphenyl)-2-(2-(1-isopropyl-1H-imidazol-4-yl)ethoxy)quinazolin-4-yl)-2,5-dimethylpiperazin-1-yl)prop-2-en-1-one]",+++ (+++ indicates binding activity greater than 90%),
"C=CC(=O)N1C[C@H](C)N(c2nc(OCC(C)(C)O)nc3c(F)c(-c4c(O)cccc4F)c(Cl)cc23)C[C@H]1C [Compound 281, 1-((2R,5S)-4-(6-chloro-8-fluoro-7-(2-fluoro-6-hydroxyphenyl)-2-(2-hydroxy-2-methylpropoxy)quinazolin-4-yl)-2,5-dimethylpiperazin-1-yl)prop-2-en-1-one]",++ (++ indicates binding activity from 50 to 90%),
